# Source: patent publication US12099051B2 (priority 2022, dated 2024)
# Values joined by “and” are separate entries in the source; they are usually repeats but may differ in a detail not shown here. Equal entries are not always repeated.
# Key:
# [1] = test system: Caenorhabditis elegans (N2 wild-type); assay: whole plant or invertebrate; format: in vivo
# [2] = test system: Caenorhabditis elegans (N2 wild-type); details: in vivo
# Caenorhabditis elegans = details: in vivo
# [3] = test system: Caenorhabditis elegans mutant strain Daf-16 (mu86); details: in vivo
# [4] = test system: Caenorhabditis elegans mutant strain Daf-2 (e1370); details: in vivo
# [5] = test system: Caenorhabditis elegans mutant strain Daf-16 (mu86); details: in vivo; remark: listed apart in the source
# [6] = test system: Caenorhabditis elegans mutant strain Daf-2 (e1370); details: in vivo; remark: listed apart in the source
structure (smiles),measurement,setting,value
"O=C1C=C2C(=CCOC2O)O1 (stereo not shown) [PAT, Patulin]",EC50,"[1]; Caenorhabditis elegans, 24 h",44.2 µg/mL
same,body length ratio,[1]; in vivo,64.45% and 55.55%
same,concentration at which nematode's body length is significantly confined (P<0.001),[1]; in vivo,25 µg/mL
same,concentration at which nematode's spawning rate is significantly confined (P<0.001),[2],5 µg/mL
same,spawning rate,[2],49.41%
same,relative fluorescence intensity ratio (ROS),Caenorhabditis elegans,136.92% and 149.43%
same,body length ratio of Daf-16 mutant strain compared with N2 wild type,[3],higher body length ratio than the N2 wild type
same,effect of Daf-2 gene silencing on developmental toxicity,[4],does not slow down the developmental toxicity
same,spawning rate of Daf-16 mutant strain compared with N2 wild-type,[5],higher spawning rate than the N2 wild-type
same,spawning rate of Daf-2 mutant strain compared with N2,[6],no significant difference from N2
